Assay results reported in patent US20250296961A1, “ANTIMICROBIAL PEPTIDES FOR REMINERALIZATION OF TEETH AND PREVENTION OF DENTAL CARIES” (The University of Hong Kong, priority 2021, published 2025).
Where two headings read alike, the source gives them in different places.

Key:
S. mutans biofilms = assay type: cell-based
Description: Streptococcus mutans (ATCC 35668, ATCC, Manassas, USA) were cultured in Horse Blood Medium under anaerobic (85% N2, 10% H2, and 5% CO2) conditions at 37° C. Cells were harvested by centrifugation (5000 rpm, 10 min), washed once with 10 mM sodium phosphate-buffered saline (PBS, pH 7.2), and resuspended in brain-heart infusion broth (BHI, Difco Laboratories, Detroit, USA) at a concentration of 10^6 CFU/mL.
S. mutans biofilms were cultured on enamel working surfaces in a 96-well plate. Tooth slices (N=32) were autoclave-sterilized prior to anti-biofilm activity testing. 200 μL S. mutans in BHI (10^6 CFU/mL) was added to each well. After a 24-h incubation at 37° C., each tooth slice was washed once with PBS. […] (in 10 mM HEPES). After incubation, tooth slices were washed once with PBS. One tooth slice at random in each group was stained with the LIVE/DEAD BacLight Bacterial Viability Kit (L7012, Thermo Fisher Scientific, Waltham, USA) and incubated in the dark for 30 min. Fluorescence images were obtained using confocal laser scanning microscopy (CLSM, Fluoview 1000, Olympus, USA). A separate tooth slice was used for the counting of colony-forming units (CFU). Tooth slices were placed in 1 mL BHI solution, and adherent biofilms were removed from the enamel surfaces by sonication for 30 sec. Ten-fold serial dilutions of the suspensions were plated in duplicate on horse blood agar. CFU's were counted after 48-h incubation. Three independent biofilm experiments were performed.

S. sanguinis = assay: Anti-planktonic bacterial ability, MBC (Example 2); assay type: cell-based, S. sanguinis (ATCC 10556)
Description: (§1) S. mutans (ATCC 35668, ATCC, Manassas, USA), S. gordonii (ATCC 35105, ATCC, Manassas, USA), and S. sanguinis (ATCC 10556, ATCC, Manassas, USA) strains were cultured in brain-heart infusion broth (BHI, Difco Laboratories, Detroit, USA) at 37° C. under anaerobic conditions (85% N2, 10% H2, and 5% CO2). Bacteria were harvested by centrifugation (5000 rpm, 10 min), washed once with sodium phosphate-buffered saline (PBS, 10 mM, pH=7.2), and resuspended in BHI at a concentration of 1×10^6 CFU mL^−1.
(§2) Each well was seeded with 10 μL S. mutans suspension, S. gordonii suspension, and S. sanguinis suspension, respectively. […] The bacterial growth was assessed by measuring the absorbance at 595 nm using a microplate reader after a 24-hour incubation. Subsequently, 10 μL of bacterial suspension from each well were plated on horse blood agar plates and incubated at 37° C. for 48 h. The antibacterial activities of AMPs were evaluated.

[1] = Demineralization assay of peptide-coated enamel (Example 1); design: species or system human; conditions: demineralization solution 7 days
Description: (§3) 3×3×1.5 mm^3 (number: 197) tooth slices were prepared using a water-cooled diamond saw (IsoMet low-speed saw, Buehler, Lake Bluff, IL, USA). One working surface of complete enamel tissue from each tooth slice was generated using the MicroCT Skyscan 1172 (Bruker MicroCT, Kontich, Belgium). The enamel working side of the tooth slice was polished and other sides marked with acid-proof nail polish. All tooth slices were cleaned and stored in deionized water at 4° C.
Tooth slices (N=30) were immersed in 8 μmol/mL P-113, P-113-DPS, P-113-DA, P-113-SK, Sp-H5 (n=5 for each) solutions (in 10 mM HEPES) or HEPES (control) overnight. Tooth slices were incubated in 2 mL demineralization solution (2.2 mM CaCl2), 2.2 mM NaH2PO4, 0.05 M acetic acid, pH 4.5) for 7 days at 37° C. Lesions depths were analyzed by MicroCT Skyscan 1172. Mineral calcium (Ca) or phosphorus (P) concentrations before and after immersion were measured using Inductively Coupled Plasma Optical Emission Spectrometer (ICP-OES; Spectro Arcos, Kleve, Germany). Ca/P loss was expressed as mM/cm^2. The mean values of Ca/P loss were analyzed for each group using ANOVA at the 1% c significance level.

S. gordonii = assay: Anti-planktonic bacterial ability, MBC (Example 2); assay type: cell-based, S. gordonii (ATCC 35105)
Description: as §1, §2

[2] = Adsorption time assay on tooth enamel (Micro BCA); assay type: binding, human; conditions: 10 nmol/mL peptide, 37° C.
Description: as §3
Adsorption Time Assay The adsorption time of peptides to the tooth enamel was also tested using the Micro BCA method. Solutions of P-113, P-113-DPS, P-113-DA, and P-113-SK in 10 mM HEPES buffer (pH 7) were diluted to 10 nmol/mL. Enamel working surfaces of tooth slices (N=20) were exposed to P-113 solution (n=5), P-113-DPS solution (n=5), P-113-DA solution (n=5), and P-113-SK solution (n=5), respectively. The remaining extraneous surfaces were covered with wax. Tubes were placed into a rotator at 37° C. […] After a 30-min incubation, absorbance was measured. A function of C=a*A+b was determined (a and b are constants). The concentrations of the peptide solution at different time points (C0, C1, C2, C3, C4, and C5 at 0, 5, 20, 40, 60, and 120 min, respectively) were computed based on absorbances […].

Sequence: AKRHHGYKRKFH [Peptide P-113, non-specific AMP, portion of human histatin 5]
- S. mutans killed (biofilm) (S. mutans biofilms; 128 μmol/mL, 24 h exposure): 79%
- S. mutans killed (biofilm) (S. mutans biofilms; 160 μmol/mL): 87%
- CLSM live/dead state of S. mutans biofilm (S. mutans biofilms; 24 h, concentration not given): the majority of S. mutans in BHI and P-113 were alive
- MBC, S. sanguinis (S. sanguinis): >128 μM mL^−1
- Maximum lesion depth ([1]; 8 μmol/mL coating, MicroCT): 115 μm
- Ca losses vs control group [1]: Significant differences were not detected
- MBC, S. gordonii (S. gordonii): >128 μM mL^−1
- Adsorption time on enamel (majority of adsorption / significant decrease in concentration) [2]: 60 min
